Measurements from article PMC12067093, “Discovery and optimisation of a covalent ligand for TRIM25 and its application to targeted protein ubiquitination” (Chemical Science, 2025).

Target: T1, TRIM25 (full-length, His10-TRIM25) (Homo sapiens, UniProt Q14258)
T1 construct: Full-length recombinant TRIM25 was pre-treated with either DMSO, 10 or 11; made in house; host or cells: Sf9 insect cells
Assay: In vitro TRIM25 auto-ubiquitination time course assay
Type: biochemical
Conditions: TRIM25 4 μM pre-treated with compound 50 μM for 16 h at 4 °C, versus DMSO; assay 60 min at 30 °C
Experimental: 1 Glutathione reactivity assay
2 Glutathione consumption assay was outsourced to Cyprotex, where the experimental
3 procedure was optimised and performed. 10 mM DMSO stocks of fragments 1 and 2,
5 diluted with 5 mM glutathione in PBS. The reaction was shaken before incubation at
6 40 °C. The reaction mixture was analysed via UPLC-UV-MS up to eight times across
7 24 hours, compared to known reference compounds and samples of each compound
8 in distilled water. UPLC conditions: flow rate 800 µL/min on an Acquity UPLC BEH
9 C18 1.7 µm 2.1 x 50 mm column, with column temperature 37°C, monitored at 210 to
10 350 nm. Samples were run using a 2 min gradient elution from 97% mobile phase A
11 to 0% mobile phase A, where mobile phase A was 0.1% formic acid in H2O, and mobile
12 phase B was 0.1% formic acid in 100% MeCN. MS conditions: single quad, ESI+, with
13 scan range of 50 – 1000 Da. […]
15 (k) for each compound was determined from the slope of a linear regression fit for a […]
17 differential for the eight time points. t1/2 values were calculated as follows: t1/2 = 0.693/k. […]
2 indicates the sample taken prior to the addition of ATP. Samples were analysed by […]
16 added directly to the ubiquitination assay reaction mixture. Samples were analysed as […]
18 which was detected by anti-rabbit-HRP secondary antibody (Dako, P0399, 1:2000). […]
21 analysed in ImageLab (Bio-Rad). […]

T1 sequence (Q14258 whole entry): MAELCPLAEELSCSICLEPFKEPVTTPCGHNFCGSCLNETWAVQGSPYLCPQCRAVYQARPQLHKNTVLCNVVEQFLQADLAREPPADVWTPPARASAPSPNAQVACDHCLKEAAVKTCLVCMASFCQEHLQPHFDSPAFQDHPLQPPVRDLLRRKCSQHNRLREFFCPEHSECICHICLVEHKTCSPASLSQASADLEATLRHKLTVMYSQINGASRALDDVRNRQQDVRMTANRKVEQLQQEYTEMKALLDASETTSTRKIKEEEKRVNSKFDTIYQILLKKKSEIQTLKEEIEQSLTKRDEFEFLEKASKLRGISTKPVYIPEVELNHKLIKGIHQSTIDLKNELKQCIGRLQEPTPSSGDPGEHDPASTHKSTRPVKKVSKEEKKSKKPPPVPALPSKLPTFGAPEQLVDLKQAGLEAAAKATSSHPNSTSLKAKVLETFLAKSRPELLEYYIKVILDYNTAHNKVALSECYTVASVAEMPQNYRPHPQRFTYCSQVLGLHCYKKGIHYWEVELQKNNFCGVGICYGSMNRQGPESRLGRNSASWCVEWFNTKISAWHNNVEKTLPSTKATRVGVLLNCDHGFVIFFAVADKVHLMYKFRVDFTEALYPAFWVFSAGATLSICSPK

For `Cc1cc(C(=O)N2CCCN(C(=O)CCl)CC2)ccc1-c1ccccc1` [Compound 10], the “rate of TRIM25 auto-ubiquitination” value was “significantly increased”.

`CC1Cc2ccccc2N1C(=O)C1CCCN(C(=O)CCl)C1` (centres unmarked) [Compound 11] was tested, and the “rate of TRIM25 auto-ubiquitination” value was “significantly increased”.
